# Assay results reported in patent US20050084500A1, “Growth promoter composition for animals” (priority 2001, published 2005).
# Read-outs that look alike come from different tables or passages of the source.
# Assays:
# [1] = type: in vivo; details: for FCR: feed conversion ratio per trial group; for FCR / Mortality: piglets 7-20 kg; for Mortality: whole trial; for Number of veterinary treatments: sum of all treatments performed on the animals during the total period of the trial; for Daily growth: weaned piglets, 7-20 kg, fed ad libitum
# Description: The present example relates to the effects of a composition according to the invention comprising a fungus at and least one growth promoting element on piglet performance of piglets in the phase 7-20 kg.
# Commercial available weaning and starter feeds were used. During the first 2 weeks, a weaning feed was given to the piglets. From the third week till the end of the trial, i.e. at an average weight of 20 kg, the piglets received a starter feed. The trial feeds used are illustrated in table 2. During the whole trial period the piglets were fed ad libitum. The piglets under study were 120 weaned barrows and sows, with an age of 28 days at weaning. In the stable, 12 pens were present which contained each 10 piglets. For each trial, 3 replicates of 10 piglets were used. Ventilation and heating was automatically controlled. In each pen, 1 drinking nipple was present for water supply. Piglets were distinguished and weighed individually. They were allocated randomly to the different groups so that the average weight of each group was equal. A total of 120 animals was monitored. The following parameters were monitored during the trial: • the feed intake per trial group (measured at the end of the trial) • the weight of the individual animals (was measured at the beginning and at the end of the trial) • the feed conversion ratio per trial group was calculated • veterinary treatments and • mortality.
# [2] = Influence of Lentinus edodes on the zootechnic performance of poultry (feeding trial); type: in vivo, chickens; details: Lentinus edodes at 0.5% of feed where present; for FCR: feed conversion ratio, chickens, end of trial; for Daily growth: one day old chickens, feed ad libitum
# Description: 20×40 one day old chickens were provided with following feeds: control feed, control feeds supplemented with a growth-promoting component, control feed supplemented with 0.5% fungi (Lentinus edodes) and control feed supplemented with a growth-promoting component and with 0.5% fungi (Lentinus edodes). As used herein, the term “control feed” refers to a standard animal feed for meat-producing animals, i.e. feed that can be used in the animal husbandry field and is suitable to be fed to meat-producing animals to supply part or all of the meat-producing animal's nutrient requirements. Water and feed were supplied ad libitum. At the end of the trial, chickens were weighed and feed conversion ratio's were determined (Table 1). Microbial contents in the gastrointestinal tract were determined by plate counting.
Compound,FCR [1],Mortality [1] [%],Number of veterinary treatments [1],Daily growth [1] [g/pig/day],FCR [2],Daily growth [2] [g/chicken/day]
"COC[C@H]1O[C@@H](OC2OC[C@@H]3O[C@]4(O[C@H]3[C@H]2OC(=O)C(C)C)O[C@H](C)[C@@](O)(C(C)=O)[C@@H]2OCO[C@H]24)[C@@H](OC)[C@@H](O)[C@@H]1O[C@@H]1O[C@H](C)[C@H](OC)[C@H](O[C@H]2C[C@@]3(C)OC4(C[C@@H](O)[C@H](O[C@H]5C[C@@H](O)[C@H](OC(=O)c6c(C)c(Cl)c(O)c(Cl)c6OC)[C@@H](C)O5)[C@@H](C)O4)O[C@@H]3[C@@H](C)O2)[C@H]1O (stereo partly drawn) [control + Avilamycin, Avilamycin]",1.65,3.3,25,365,1.59,53.99
"CC[C@@H](C(=O)[C@@H](C)[C@@H](O)[C@H](C)[C@@H]1O[C@@H]([C@@H](CC)C(=O)O)CC[C@@H]1C)[C@H]1O[C@]2(C=C[C@@H](O)[C@]3(CC[C@@](C)([C@H]4CC[C@](O)(CC)[C@H](C)O4)O3)O2)[C@H](C)C[C@@H]1C [control + Salinomycine, Salinomycine]",1.70,6.6,26,362,1.60,54.06
"O=CO [control + formic acid, formic acid]",1.69,10.0,28,351,1.55,52.18
"OP(O)O [control + phophorous acid, phophorous acid]",1.69,6.6,30,346,1.56,52.23
inulin [control + inulin],1.78,10,32,330,1.65,51.09
